System: primary rat mixed cortical cells
Assay: In vitro myelination assay (MBP positive myelin strands, fold myelin pixels above background)
Type: cell-based
Conditions: Rattus norvegicus, relative to baseline of no added compound; for fold induction at 1 µM: 1.0 μM compound, read-out: Fold myelin pixels above background, 1.0 μM; for fold induction at 10 µM: 10.0 μM compound, read-out: Fold myelin pixels above background, 10.0 μM
How it was run: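 Fourteen-day treatment of primary P1 rat mixed cortical cultures, re-dosed at days 6 and 10, at 1.0 μM and 10.0 μM. MBP immunofluorescence was imaged at 10× and myelin strands quantified by software, normalised to untreated wells as fold above background.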

Structure (SMILES) | fold induction at 1 µM | fold induction at 10 µM
COc1cccc(-n2cnc(Nc3cc(Cl)nc(N4CCOCC4)c3)n2)c1 [Compound 145, 2-chloro-N-[1-(3-methoxyphenyl)-1,2,4-triazol-3-yl]-6-morpholino-pyridin-4-amine] | 10 to 100 | 10 to 100
Cc1cc(Nc2ncn(-c3ccccc3)n2)cc(N2CCCC(C#N)C2)c1 (centres unmarked) [Compound 146, 1-[3-methyl-5-[(1-phenyl-1,2,4-triazol-3-yl)amino]phenyl]piperidine-3-carbonitrile] | 1000 to 10000 | 100 to 1000
Cc1cc(Nc2ncn(-c3cccc(F)c3)n2)cc(C2COC2)c1 [Compound 147, 1-(3-fluorophenyl)-N-[3-methyl-5-(oxetan-3-yl)phenyl]-1,2,4-triazol-3-amine] | 1000 to 10000 | 10 to 100
COCCC1CCN(c2cc(C)cc(Nc3ncn(-c4ccccc4)n3)c2)CC1 [Compound 148, N-[3-[4-(2-methoxyethyl)-1-piperidyl]-5-methyl-phenyl]-1-phenyl-1,2,4-triazol-3-amine] | 100 to 1000 | 100 to 1000
Cc1cc(Nc2ncn(-c3ccccc3)n2)cc(N2CCN(C3CC3)CC2)c1 [Compound 149, N-[3-(4-cyclopropylpiperazin-1-yl)-5-methyl-phenyl]-1-phenyl-1,2,4-triazol-3-amine] | 1000 to 10000 | 10 to 100
Fc1ccc(-n2cnc(Nc3cc(C4CCOCC4)nc(C4CC4)c3)n2)cc1F [Compound 150, 2-cyclopropyl-N-(1-(3,4-difluorophenyl)-1H-1,2,4-triazol-3-yl)-6-(tetrahydro-2H-pyran-4-yl)pyridin-4-amine] | 1000 to 10000 | ≤ 1
Cc1cc(Nc2ncn(-c3cc(F)cc(F)c3)n2)cc(C2CCN(C)CC2)c1 [Compound 151, 1-(3,5-difluorophenyl)-N-[3-methyl-5-(1-methyl-4-piperidyl)phenyl]-1,2,4-triazol-3-amine] | 10 to 100 | ≤ 1
Cc1cc(Nc2ncn(-c3ccccc3)n2)cc(N2CC(CC(C)C)N3CCC[C@@H]3C2)c1 (stereo partly drawn) [Compound 152, N-[3-[(8aR)-4-isobutyl-3,4,6,7,8,8a-hexahydro-1H-pyrrolo[1,2-a]pyrazin-2-yl]-5-methyl-phenyl]-1-phenyl-1,2,4-triazol-3-amine] | ≤ 1 | ≤ 1
Fc1cc(-n2cnc(Nc3cc(C(F)F)cc(N4CCN(C5CC5)CC4)c3)n2)ccn1 [Compound 153, N-[3-(4-cyclopropylpiperazin-1-yl)-5-(difluoromethyl)phenyl]-1-(2-fluoro-4-pyridyl)-1,2,4-triazol-3-amine] | 100 to 1000 | 10 to 100
Cc1cc(Nc2ncn(-c3cccc(F)n3)n2)cc(N2CCN(C3COC3)CC2)c1 [Compound 154, 1-(6-fluoro-2-pyridyl)-N-[3-methyl-5-[4-(oxetan-3-yl)piperazin-1-yl]phenyl]-1,2,4-triazol-3-amine] | 100 to 1000 | 100 to 1000
Cc1cc(Nc2ncn(-c3ccnc(O)c3)n2)cc(N2CCOCC2)c1 [Compound 155, 4-[3-(3-methyl-5-morpholino-anilino)-1,2,4-triazol-1-yl]pyridin-2-ol] | 100 to 1000 | 100 to 1000
Cc1cc(Nc2ncn(-c3ccccc3)n2)cc(N2CCN(C)CC2)n1 [Compound 156, 2-methyl-6-(4-methylpiperazin-1-yl)-N-(1-phenyl-1,2,4-triazol-3-yl)pyridin-4-amine] | 1000 to 10000 | ≤ 1
Cc1cc(Nc2ncn(-c3ccccc3)n2)cc(N2CCN3CCC[C@@H]3C2)c1 [Compound 157, N-[3-[(8aR)-3,4,6,7,8,8a-hexahydro-1H-pyrrolo[1,2-a]pyrazin-2-yl]-5-methyl-phenyl]-1-phenyl-1,2,4-triazol-3-amine] | 1000 to 10000 | 1000 to 10000

Source: patent US10766869B2, “Triazoles for the treatment of demyelinating dieases” (Vertex Pharmaceuticals Incorporated, priority 2015, dated 2020)
